# Measured values as given in patent US20140243276A1, “SMAC MIMETIC (BIRINAPANT) FOR USE IN THE TREATMENT OF PROLIFERATIVE DISEASES (CANCER)” (TETRALOGIC PHARMACEUTICALS CORPORATION, priority 2011, published 2014).
# Where “and” joins values, the source holds several entries; their conditions need not be identical. Equal entries are not always repeated. Entries after “also recorded” stand apart in the source; their conditions may differ.
# Assays:
# [1] = test system: primary human melanoma tumor xenograft; test: Efficacy in primary human melanoma tumor xenograft models
# [2] = test system: apoptosis pathway (PARP cleavage, caspase-3/7, cleaved cytokeratin-18); test: Phase 1 apoptosis pathway activation markers in patients; type: in vivo, human
# [3] = mouse, in vivo
# [4] = Phase 1 safety and tolerability in patients; conditions: for tolerability: patients
# [5] = in vivo
# [6] = test system: MDA-MB-231 xenograft; test: Tumor growth inhibition in MDA-MB-231 xenograft; type: in vivo, mice
# [7] = human, in vivo
# [8] = test system: advanced solid tumors and lymphoma; test: Phase 1 anti-tumor activity in patients with refractory solid tumors or lymphoma; type: in vivo, human
# [9] = mouse, in vivo; remark: listed apart in the source
# [10] = test system: Panc1; test: Panc1 immunoblotting and Trypan blue staining, alone and with TRAIL; type: cell-based
# [11] = test system: primary pancreatic tumors; conditions: mouse, in vivo
# Method: (§1) An additional 6 primary pancreatic tumors were evaluated at 60 mg/kg.
# [12] = test system: primary pancreatic tumors; test: Patient-derived primary pancreatic cancer explant model
# Method: as §1
# [13] = TL32711 combined with carboplatin and paclitaxel
# [14] = patients with solid tumors and lymphoma
# [15] = CRC Patient 01-202, dose cohort 0.36 mg/m^2
# [16] = CRC Patient 01-801, dose cohort 17.2 mg/m^2
# [17] = Melanoma Patient 01-703, dose cohort 11.5 mg/m^2
# [18] = 60 mg/kg i.p. twice weekly, 28 days
compound,measurement,setting,value
"CC[C@H](NC(=O)[C@H](C)NC)C(=O)N1C[C@@H](O)C[C@H]1Cc1c(-c2[nH]c3cc(F)ccc3c2C[C@@H]2C[C@H](O)CN2C(=O)[C@H](CC)NC(=O)[C@H](C)NC)[nH]c2cc(F)ccc12 [TL32711, N-{1S-[2R-(6,6′-Difluoro-3′-{4S-hydroxy-1-[2S-(2S-methylamino-propionylamino)-butyryl]-pyrrolidin-2R-ylmethyl}-1H,1′H-[2,2′]biindolyl-3-ylmethyl)-4S-hydroxy-pyrrolidine-1-carbonyl]-propyl}-2S-methylamino-propionamide]",anti-tumor activity of biweekly versus weekly dosing schedule,"[1]; 15 mg/kg twice/week versus 30 mg/kg once/week, primary melanoma model",did not result in enhanced anti-tumor activity
same,models with tumor regressions,[1]; [13],4 of the 6
same,reduction in bodyweight (tolerability),[1]; [13],< 14%
same,primary melanoma tumor xenografts with significant tumor growth inhibition,"[1]; single agent TL32711, 30 mg/kg IP",5 of 6 and 5/6
same,PBMC PARD cleavage and plasma caspase-3 activity,[2],dose related increase
same,activated serum caspase-3/7 and cleaved cytokeratin-18 levels,[2],dose-related
same,TL32711 tumor half-life after increase in exposure,[3],166 h
same,TL32711 tumor half-life before increase in exposure,[3],56 h
same,increase in tumor exposure for a 4-fold increase in dose,[3],14 fold
same,tolerability,[4],well tolerated
same,dose-limiting toxicities,[4]; [14],no dose-limiting toxicities
same,maximum tolerated dose (MTD),[4]; [14],has not been reached
same,tolerability,[4]; listed as Compound 15,unexpectedly well tolerated
same,tolerability at 63 mg/m^2,"[4]; two patients, 63 mg/m^2 weekly, 3 weeks on/1 week off",not well tolerated
same,half-life in the patient,[5]; human,long half-life
same,inter-patient variability in Cmax and AUC,[5]; human,moderate to low
same,retention (half-life) in tumor tissues,[5]; human,49 h
same,t1/2 in PBMCs,[5]; human,29 to 35 h
same,terminal half-life in plasma,[5]; human,35 h
same,terminal half-life in tumor tissue,[5]; human,52 h
same,plasma terminal t½,"[5]; human, iv",73 to 79 h
same,estimated tumor exposure in patients versus primary human tumor xenograft models in mice,[5],in excess of the measured drug levels
same,cIAP1 inhibition in tumors throughout the dosing interval at which significant tumor growth delay and regressions were observed,[6]; mice bearing MDA-MB-231 xenograft,> 75%
same,doses causing significant tumor growth inhibition and regressions,"[6]; q3D, MDA-MB-231 xenograft",≥ 2.5 mg/kg
same,"Fever, Number of Grade 1 or 2 Events (%)",[7],4 (11%)
same,Grade 3 or Grade 4 Adverse Events attributed to study drug,[7],No Grade 3 or Grade 4 Adverse Events attributed to study drug
same,"Lymphocytopenia, Number of Grade 1 or 2 Events (%)",[7],2 (6%)
same,"Nausea, Number of Grade 1 or 2 Events (%)",[7],5 (14%)
same,"Rash, Number of Grade 1 or 2 Events (%)",[7],3 (8%)
same,cycles received before disease progression,[8]; [15],Patient received 6 cycles (24 weeks) of TL32711 before disease
same,metastatic lesions decreased on CT scan after 2 cycles,[8]; [15],CT scan; 3 of 5 metastatic lesions decreased after 2 cycles of
same,response by RECIST criteria after 2 cycles,[8]; [15],TL32711 - Stable Disease by RECIST criteria
same,clinical improvement during first 2 cycles,[8]; [16],Patient had marked clinical improvement of early satiety and pain
same,disease progression after 2 cycles,[8]; [16],Patient progressed with development of a new liver lesion after
same,patient's CEA after 1 cycle,[8]; [16],decreased (150 to 90)
same,photopenic lesion developed in a hepatic metastasis after 1 cycle,[8]; [16],4-5 cm
same,disease progression,[8]; [17],Progressed after 3rd cycle with increasing cutaneous lesions
same,response by RECIST criteria after 2 cycles,[8]; [17],Stable Disease by RECIST criteria after 2 cycles of TL32711
same,anti-tumor activity in patients (overall),[8]; Phase 1 patients,promising early signs of anti-tumor activity; also recorded: Evidence of anti-tumor activity observed
same,half-life in plasma,[9],20 h
same,half-life in tumor,[9],96 h
same,pro-apoptotic effect,"[10]; Panc1, TL32711 alone",dose-dependent pro-apoptotic effect
same,pro-apoptotic effect with TRAIL co-incubation,"[10]; Panc1, TL32711 with TRAIL",synergized
same,cIAP1 degradation and caspase-3 activation,"[10]; Panc1, immunoblotting",rapid cIAP1 degradation leading to caspase-3 activation
same,relation of efficacy to tumor drug exposure,[11],efficacy correlated with tumor drug exposure
same,growth inhibition in primary tumor #17624,[12]; 30 mg/kg i.p. twice weekly,significant growth inhibition
same,significant growth inhibition in primary tumor #12872,[12]; 30 mg/kg i.p. twice weekly,not
same,T/C in the 2 primary tumors with suboptimal growth inhibition,[12]; [18],~0.4
same,T/C in the 6 primary tumors with significant growth arrest/inhibition,[12]; [18],−0.1 to 0.2
same,toxicity in the tumor-bearing mice,"[12]; all dose levels (30, 45, 60 mg/kg i.p. twice weekly)",No significant toxicity
same,dose achieving significant growth inhibition in both #17624 and #12872,"[12]; i.p. twice weekly, dose escalation",>= 45 mg/kg
